{"source": "patent US20120264684A1", "about": "“Glycosylated Form of Antigenic GLP-1 Analogue” (priority 2009, published 2012)", "key": {"[1]": {"test_system": "C57BL/6JJcl mice", "experiment": "Oral glucose tolerance test (OGTT) of oligosaccharide chain added liraglutide", "assay_type": "in vivo", "conditions": "9 nmol/10 ml PBS, 10 ml/kg i.p., 30 minutes before oral glucose 1 mg/g, fasted C57BL/6JJcl mice", "method": "(§1) Blood glucose suppressing activity by OGTT can be determined by measuring blood glucose elevation suppression when mice are force-fed sugar. For example, first, a test compound is administered to mice fasted overnight, and glucose solution is orally administered 30 minutes later. Blood glucose in mice will rise from the administration of glucose, reach maximum at about 30 minutes after administration, and then slowly decrease. The blood glucose suppressing action of the oligosaccharide, chain added antigenic GLP-1 analogue can be evaluated by measuring blood glucose 30 minutes after administration of glucose, and comparing it to blood glucose when non-oligosaccharide chain added antigenic GLP-1 analogue is administered. […] Orbital blood was collected before administration of glucose, as well as 30 minutes, 60 minutes, and 120 minutes after administration of glucose, and blood glucose was measured using Accu-Chek Aviva (Roche Diagnostics)."}, "[2]": {"test_system": "BKS.Cg-+Leprdb/+Leprdb/Jc1 mice (db/db mice)", "experiment": "Blood glucose lowering action of oligosaccharide chain added liraglutide using db/db mice", "assay_type": "in vivo", "conditions": "for blood glucose lowering action in db/db mice: 9 nmol/10 mL PBS, 10 mL/kg i.p., blood glucose at 30 to 720 minutes", "method": "Blood glucose suppressing activity using db/db mice can be determined by measuring blood glucose after administration of a test compound to diabetic mice. Blood glucose after administration of the test compound is measured over time, and if for example, blood glucose 120 minutes after administration is lower than at the time of administration, blood glucose lowering action can be confirmed. For example, sustainability of blood glucose lowering action can also be determined by measuring blood glucose 300 minutes after administration. […] Orbital blood was collected before administration of the compound, as well as 30 minutes, 60 minutes, 120 minutes, 240 minutes, 480 minutes, and 720 minutes later, and blood glucose was measured using Accu-Chek Aviva (Roche Diagnostics). Similarly, non-oligosaccharide chain added liraglutide was also administered to db/db mice, blood glucose was measured over time, and compared to the action of position 30 Cys-disialooligosaccharide chain added liraglutide."}, "[3]": {"target": "albumin (Homo sapiens, UniProt P02768)", "sequence (P02768 25-609)": "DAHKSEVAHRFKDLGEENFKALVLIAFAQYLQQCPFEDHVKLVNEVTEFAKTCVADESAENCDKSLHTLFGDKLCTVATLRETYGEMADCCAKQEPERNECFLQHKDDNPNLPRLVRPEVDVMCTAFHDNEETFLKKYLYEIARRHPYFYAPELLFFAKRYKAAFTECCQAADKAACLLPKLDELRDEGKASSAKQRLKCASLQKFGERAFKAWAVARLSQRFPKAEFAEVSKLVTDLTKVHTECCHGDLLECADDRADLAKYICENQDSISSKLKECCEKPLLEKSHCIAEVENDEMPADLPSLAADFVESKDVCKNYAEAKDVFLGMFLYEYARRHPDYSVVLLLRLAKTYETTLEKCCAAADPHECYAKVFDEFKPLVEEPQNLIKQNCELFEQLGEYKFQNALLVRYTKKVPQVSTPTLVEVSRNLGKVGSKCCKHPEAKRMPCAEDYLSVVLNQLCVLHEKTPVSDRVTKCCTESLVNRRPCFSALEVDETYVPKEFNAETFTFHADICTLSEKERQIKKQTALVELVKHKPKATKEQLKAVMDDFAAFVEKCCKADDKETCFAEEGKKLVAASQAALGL", "conditions": "background art; cited from earlier work"}, "[4]": {"test_system": "C57BL/6JJcl mice", "experiment": "Oral glucose tolerance test (OGTT) of oligosaccharide chain added exendin-4", "assay_type": "in vivo", "conditions": "0.9 nmol/10 ml PBS, 10 ml/kg i.p., 30 minutes before oral glucose 1 mg/g, fasted C57BL/6JJcl mice, GLP-1 at 9 nmol/10 ml", "method": "as §1, with “Diagnostics). Similarly, non-oligosaccharide chain added liraglutide was also administered to db/db mice, blood glucose was measured over time, and compared to the action of position 30 Cys-disialooligosaccharide chain added liraglutide.” for “Diagnostics).”"}, "[5]": {"test_system": "BKS.Cg-+Leprdb/+Leprdb/Jc1 mice", "experiment": "Blood glucose lowering action of oligosaccharide chain added exendin-4 using db/db mice", "assay_type": "in vivo", "conditions": "for blood glucose lowering action in db/db mice: 9 mmol/10 mL PBS, 10 mL/kg i.p., blood glucose at 30, 60, 120, 240 minutes", "method": "Blood glucose suppressing activity using db/db mice can be determined by measuring blood glucose after administration of a test compound to diabetic mice. Blood glucose after administration of the test compound is measured over time, and if for example, blood glucose 120 minutes after administration is lower than at the time of administration, blood glucose lowering action can be confirmed. For example, sustainability of blood glucose lowering action can also be determined by measuring blood glucose 300 minutes after administration.\nA PBS solution of position 30 Cys-disialooligosaccharide chain added exendin-4 synthesized in Example 1 ([…]/10 mL) was intraperitoneally administered to BKS.Cg-+Leprdb/+Leprdb/Jc1 mice (10 weeks old, male) at an administration dosage of 10 mL/kg. Orbital blood was collected before administration of the compound, as well as 30 minutes, 60 minutes, 120 minutes, and 240 minutes later, and blood glucose was measured using Accu-Chek Aviva (Roche Diagnostics).\nBlood glucose lowering action was compared with non-oligosaccharide chain added exendin-4 synthesized in Comparative Example 1."}, "[6]": {"test_system": "balb/c mice", "conditions": "mouse, in vivo", "description": "The effect of glycosylation on the antigenicity of exendin was verified by sensitizing mice with non-oligosaccharide chain added exendin-4 or position 30 Cys-disialooligosaccharide chain added exendin-4, and comparing blood anti-exendin-4 antibody concentrations.\nAs priming immunization, position 30 Cys-disialooligosaccharide chain added exendin-4 synthesized in Example 1 and non-oligosaccharide chain added exendin-4 (American Peptide Company) were mixed well with Complete Freund's adjuvant (Difco Laboratories) to make emulsions, and intraperitoneally administered to balb/c mice (female, 7 weeks old). […]\nPlasma was collected from mice seven days after the boost immunization. The anti-exendin-4 antibody concentration in plasma was measured by Enzyme-Linked immunosorbent assay (ELISA) using commercially available anti-exendin-4 antibody (Antibodyshop) as the standard.\nFifty μg of non-oligosaccharide chain added exendin-4 was added to a 96-well ELISA plate, and incubated at 37° C. for 2 hours. […] The color development reaction was terminated by adding 20% SDS, and absorption at 405 nm was measured. The concentration of anti-exendin-4 antibody was determined using anti-exendin-4 monoclonal antibody as the standard."}, "[7]": {"conditions": "listed as Oligosaccharide chain added liraglutide"}, "[8]": {"conditions": "listed as Position 30 Cys-disialooligosaccharide chain added liraglutide"}, "[9]": {"conditions": "stated with the db/db mice test"}, "[10]": {"conditions": "listed as Oligosaccharide chain added exendin-4"}}, "note": "Entries after “also recorded” stand apart in the source; their conditions may differ."}
{"compound": "Position 30 Cys-DisialoOligosaccharide Chain Added Liraglutide", "values": [{"measurement": "blood glucose elevation suppressive action (OGTT)", "setting": "[1]", "result": "even higher blood glucose elevation suppressive action compared to non-oligosaccharide chain added liraglutide"}, {"measurement": "blood glucose elevation suppressive action (OGTT)", "setting": "[1]; [7]", "result": "blood glucose elevation suppressive action even higher than non-oligosaccharide chain added liraglutide"}, {"measurement": "blood glucose elevation suppressive action (OGTT)", "setting": "[1]; [8]", "result": "blood glucose elevation suppressive action higher than vehicle (PBS only) and GLP-1"}, {"measurement": "blood glucose lowering action in db/db mice", "setting": "[2]; [7]", "result": "blood glucose lowering action and sustainability equal to non-oligosaccharide chain added liraglutide"}, {"measurement": "blood glucose lowering action in db/db mice", "setting": "[2]; [8]", "result": "strong blood glucose lowering action 30 minutes after administration; also recorded: blood glucose lowering action and sustainability equal to non-oligosaccharide, chain added liraglutide"}, {"measurement": "duration of blood glucose lowering effect in db/db mice", "setting": "[2]; i.p., 10 mL/kg, last sampling 720 minutes", "result": 12, "unit": "h"}, {"measurement": "blood stability", "setting": "[2]; [9]", "result": "high blood stability"}]}
{"compound": "CCCCCCCCCCCCCCCC(=O)N[C@@H](CCC(=O)NCCCC[C@H](NC(=O)[C@H](C)NC(=O)[C@H](C)NC(=O)[C@H](CCC(N)=O)NC(=O)CNC(=O)[C@H](CCC(=O)O)NC(=O)[C@H](CC(C)C)NC(=O)[C@H](Cc1ccc(O)cc1)NC(=O)[C@H](CO)NC(=O)[C@H](CO)NC(=O)[C@@H](NC(=O)[C@H](CC(=O)O)NC(=O)[C@H](CO)NC(=O)[C@@H](NC(=O)[C@H](Cc1ccccc1)NC(=O)[C@@H](NC(=O)CNC(=O)[C@H](CCC(=O)O)NC(=O)[C@H](C)NC(=O)[C@@H](N)Cc1cnc[nH]1)[C@@H](C)O)[C@@H](C)O)C(C)C)C(=O)N[C@@H](CCC(=O)O)C(=O)N[C@@H](Cc1ccccc1)C(=O)N[C@H](C(=O)N[C@@H](C)C(=O)N[C@@H](Cc1c[nH]c2ccccc12)C(=O)N[C@@H](CC(C)C)C(=O)N[C@H](C(=O)N[C@@H](CCCNC(=N)N)C(=O)NCC(=O)N[C@@H](CCCNC(=N)N)C(=O)NCC(=O)O)C(C)C)[C@@H](C)CC)C(=O)O", "note": "[Liraglutide]", "values": [{"measurement": "administered amount that binds to albumin", "setting": "[3]", "result": "about 99%"}]}
{"compound": "Exendin-4", "values": [{"measurement": "blood glucose elevation suppressive action (OGTT)", "setting": "[4]", "result": "blood glucose elevation suppressive action higher than vehicle (PBS only) and GLP-1"}, {"measurement": "blood glucose lowering action in db/db mice", "setting": "[5]", "result": "strong blood glucose lowering action 30 minutes after administration"}, {"measurement": "duration of blood glucose lowering effect in db/db mice", "setting": "[5]; i.p., 10 mL/kg, last sampling 240 minutes", "result": 240, "unit": "min"}, {"measurement": "blood stability", "setting": "[5]; [9]", "result": "high blood stability"}]}
{"compound": "Position 30 Cys-DisialoOligosaccharide Chain Added Exendin-4", "values": [{"measurement": "plasma anti-exendin-4 antibody concentration / antibody titer compared to non-oligosaccharide chain added exendin-4", "setting": "[6]", "result": "about one-quarter"}, {"measurement": "blood glucose elevation suppressive action (OGTT)", "setting": "[4]; [10]", "result": "blood glucose elevation suppressive action equal to non-oligosaccharide chain added exendin-4"}, {"measurement": "blood glucose lowering action in db/db mice", "setting": "[5]; [10]", "result": "string blood glucose lowering action equal to non-oligosaccharide chain added exendin-4"}, {"measurement": "blood glucose lowering action in db/db mice", "setting": "[5]; listed as Position 30 Cys-disialooligosaccharide chain added exendin-4", "result": "blood glucose lowering action and sustainability equal to non-oligosaccharide chain added exendin-4"}]}
